Experimental data published in ChEMBL document CHEMBL3727345, “New compounds” (2012).

Target: fructose-2,6-bisphosphatase 3/4 (Homo sapiens) (UniProt Q16875+Q16877)
Test: Inhibition of PFKFB3/PFKFB4 in human Panc1 cells assessed as fructose -2,6-bisphosphate production at 12.5 uM preincubated for 1 hr followed by addition of D-glucose measured after 2 hrs by spectrophotometry
Format: cell-based
Details: PANC-1

fructose-2,6-bisphosphatase 3/4 (Homo sapiens), sequence (Q16875 whole entry, looked up): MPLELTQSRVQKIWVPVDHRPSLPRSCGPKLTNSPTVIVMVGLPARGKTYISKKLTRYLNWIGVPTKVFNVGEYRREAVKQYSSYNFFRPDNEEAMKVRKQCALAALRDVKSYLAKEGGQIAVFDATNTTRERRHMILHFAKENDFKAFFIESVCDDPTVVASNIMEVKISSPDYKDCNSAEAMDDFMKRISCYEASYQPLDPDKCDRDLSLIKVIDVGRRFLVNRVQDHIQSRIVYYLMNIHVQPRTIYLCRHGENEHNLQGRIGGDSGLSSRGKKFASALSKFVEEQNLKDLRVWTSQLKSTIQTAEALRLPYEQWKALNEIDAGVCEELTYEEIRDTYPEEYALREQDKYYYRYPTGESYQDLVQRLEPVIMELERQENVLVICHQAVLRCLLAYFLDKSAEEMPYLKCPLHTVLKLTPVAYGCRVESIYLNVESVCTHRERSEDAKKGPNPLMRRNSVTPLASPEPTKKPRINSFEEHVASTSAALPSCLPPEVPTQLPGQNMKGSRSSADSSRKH
fructose-2,6-bisphosphatase 3/4 (Homo sapiens), sequence (Q16877 whole entry, looked up): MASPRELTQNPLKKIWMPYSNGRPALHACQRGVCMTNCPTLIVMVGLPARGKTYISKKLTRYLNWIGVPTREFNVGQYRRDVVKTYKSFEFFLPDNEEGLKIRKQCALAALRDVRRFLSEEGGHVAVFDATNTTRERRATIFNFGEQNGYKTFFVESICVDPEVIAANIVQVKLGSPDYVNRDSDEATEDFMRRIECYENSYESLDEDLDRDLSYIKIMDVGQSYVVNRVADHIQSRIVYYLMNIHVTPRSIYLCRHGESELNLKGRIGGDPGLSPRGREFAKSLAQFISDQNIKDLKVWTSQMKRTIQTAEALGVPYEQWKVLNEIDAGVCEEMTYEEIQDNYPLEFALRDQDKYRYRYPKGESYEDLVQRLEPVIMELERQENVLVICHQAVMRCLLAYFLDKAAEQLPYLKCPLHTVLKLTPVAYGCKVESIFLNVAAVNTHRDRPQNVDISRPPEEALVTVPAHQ

Row | inhibition [%] | Compound
1 | > 50 | CCOC(=O)c1cccc(NS(=O)(=O)c2sc3ccc(Cl)cc3c2C)c1
2 | > 50 | COCCOC(=O)c1cccc(NS(=O)(=O)c2sc3ccc(Cl)cc3c2C)c1
3 | > 50 | COC(=O)c1cccc(NS(=O)(=O)c2oc3ccc(C(C)C)cc3c2C)c1

Second part, the compound before the results:

Row | Compound | inhibition [%]
4 | Cc1c(S(=O)(=O)Nc2cccc(C(=O)OCCn3cccc3)c2)sc2ccc(Cl)cc12 | > 50
5 | Cc1c(S(=O)(=O)Nc2cccc(C(=O)Oc3ccccc3)c2)sc2ccc(Cl)cc12 | > 50
6 | CCOC(=O)c1sc(NS(=O)(=O)c2cc(-c3cc(F)ccc3F)c(Cl)s2)nc1C | > 50
7 | Cc1c(S(=O)(=O)Nc2cccc(C(=O)OCc3ccccc3)c2)sc2ccc(Cl)cc12 | > 50
8 | CCCCCOC(=O)c1cccc(NS(=O)(=O)c2sc3ccc(Cl)cc3c2C)c1 | > 50
9 | Cc1c(S(=O)(=O)Nc2cccc(C(=O)OCC3CCOC3)c2)sc2ccc(Cl)cc12 (stereo not given) | > 50
10 | CCOC(=O)c1sc(NS(=O)(=O)c2sc3ccc(Cl)cc3c2C)nc1C | > 50
